{
  "source": "patent US20100221334A1",
  "about": "“COMPOSITIONS INCLUDING LEUKOTRIENE ANTAGONISTS AND NSAIDS AND METHODS OF USING THE SAME” (priority 2007, published 2010)",
  "origin": "cited, not measured here",
  "data": [
    {"details": "general statement on long-acting NSAIDs; species not given", "values": [
      {"smiles": "CCc1cccc2c3c([nH]c12)C(CC)(CC(=O)O)OCC3", "note": "(stereo not shown) [etodolac]", "pharmacokinetic half-life": "about 7 hours"},
      {"smiles": "CC(C(=O)O)c1ccc(-c2ccccc2)c(F)c1", "note": "(stereo not shown) [flurbiprofen]", "pharmacokinetic half-life": "about 6 hours"},
      {"smiles": "O=C(c1ccccc1)c1ccc2n1CCC2C(=O)O", "note": "(stereo not shown) [ketorolac]", "pharmacokinetic half-life": "8 to 9 h"},
      {"smiles": "Cc1cccc(Nc2ccccc2C(=O)O)c1C", "note": "[mefenamic acid]", "pharmacokinetic half-life": "up to 4 hours"}
    ]}
  ]
}
